Test results from publication PMC4474691, “Leukemia-Associated Mutations in Nucleophosmin Alter Recognition by CRM1: Molecular Basis of Aberrant Transport” (PLoS ONE, 2015).
*1 amine or outer side, *2 acyl side, *3 side chain or, on linkers, in order; H or OH if unused. Where a SMILES comes first, the peptide text is derived from it. Bridges are numbered along the chain shown (N, C = ends). Roman numbers before positions name the chains, in order. Where no end group is shown, it is not given here. [ ]: non-standard residue; d: D form. Actinocin(9to1) = Cc1c2oc3c(C)ccc(C(=O)[*:1])c3nc-2c(C(=O)[*:2])c(N)c1=O; NMeV = CN[C@H](C(=O)O)C(C)C; Sar = CNCC(=O)O

Tests used:
nuclear export = conditions: in vivo nuclear export assay; cited from earlier work
Source text: Two sequence motifs in the core domain of NPM (residues 42–61 and 94–102) (Fig 1) have been investigated as candidate NESs. In addition, we have detected a further putative NES in the C-terminal region (see below). However, it is still unclear to what extent any of these sequences represents NPM physiological NESs. […] It is therefore not surprising that NPM deregulation is associated to cancer. NPM is overexpressed in several solid tumors (such as gastric, colon, ovarian, prostate cancer). In addition, small insertions and translocations affecting NPM1 gene, encoding NPM, are characteristic of certain hematological disorders. In fact, NPM1 is the most frequently mutated gene in adult acute myeloid leukemia (AML). […] The higher affinity of mutE(NES) for CRM1^HA is consistent with its stronger export activity previously observed using in vivo nuclear export assays. […] Thus, the ranking of in vitro CRM1^HA affinity (PKI(NES) (KD 579 n ...

[1] = tested on: endogenous NPM in HEK293T cells; assay: Localization of endogenous NPM in HEK293T cells; format: cell-based, human
Description: (§1) Cell culture, transfection, treatment and imaging
(§2) Human embryonic kidney 293T (HEK293T) and HeLa cells (ECACC) were grown in Dulbecco’s modified Eagle’s medium, supplemented with 10% fetal bovine serum, 100 units/ml penicillin and 100 μg/ml streptomycin (all from Invitrogen). The cells were seeded onto sterile glass coverslips in 12-well trays 24 h before transfection. Transfections were carried out with XtremeGENE 9 (Roche) following the manufacturer’s protocol. Treatment of cells with the different drugs was done at the indicated final concentrations and time periods: Actinomycin D (ActD, Sigma) at 5 μg / mL for 3 h, and hydroxyurea (HU, Sigma) at 4 mM for 24 h.
Cells were fixed, either 20 or 42 h after transfection, with 3.7% formaldehyde in PBS for 30 min, then treated with 0.2% Triton X-100 in PBS for 10 min, for membrane permeabilization and incubated for 1 h in blocking solution (3% BSA in PBS). In YFP-CRM1 overexpression experiments, endogenous NPM was detected with anti-B23 (Santa Cruz Biotechnology FC82291, dilution 1:800), Myc3-NPM with anti-Myc (Cell Signalling 2276, dilution 1:2000) and Flag-SurvNLS with anti-Flag (Sigma F1704, dilution 1:300). Primary antibodies were diluted in blocking solution. In all cases, the secondary antibody was Alexa Fluor 594 anti-mouse (Invitrogen A11005, dilution 1:400). Washing between the different steps were carried out with PBS. […] Slides were examined using a Zeiss Axioskop fluorescence microscope. For quantification, at least 200 cells were “blind counted” and classified as having nuclear (or nucleolar), nuclear/cytoplasmic or cytoplasmic localization of NPM (or the Flag-SurvNLS control). […]
Fig 2 Localization of endogenous and ectopically expressed NPM and effect of treatment with actinomycin D (ActD) and CRM1 overexpression in HEK293T cells. […] Green denotes YFP (Y) or YFP-CRM1 (YC) fluorescence; red, immunostaining of endogenous NPM; and blue, DAPI fluorescence. […] More than 200 cells were “blind” counted. […] (D) Quantification of cytoplasmic (C) or nuclear and cytoplasmic (N/C) localization of overexpressed Flag-SurvNLS and Myc-NPM. […]

Myc-NPM in HEK293T cells = assay: Localization of Myc-NPM in HEK293T cells; format: cell-based, human
Description: as §1, §2
Cells were fixed, either 20 or 42 h after transfection, with 3.7% formaldehyde in PBS for 30 min, then treated with 0.2% Triton X-100 in PBS for 10 min, for membrane permeabilization and incubated for 1 h in blocking solution (3% BSA in PBS). In YFP-CRM1 overexpression experiments, endogenous NPM was detected with anti-B23 (Santa Cruz Biotechnology FC82291, dilution 1:800), Myc3-NPM with anti-Myc (Cell Signalling 2276, dilution 1:2000) and Flag-SurvNLS with anti-Flag (Sigma F1704, dilution 1:300). Primary antibodies were diluted in blocking solution. In all cases, the secondary antibody was Alexa Fluor 594 anti-mouse (Invitrogen A11005, dilution 1:400). […] Slides were examined using a Zeiss Axioskop fluorescence microscope. […]

CRM1^HA [2] = target: T1, CRM1^HA (Mus musculus, UniProt Q6P5F9, L431A/V430A/V432A); assay: Isothermal titration calorimetry, CRM1^HA / NES; format: binding; conditions: for binding response: titrated onto CRM1^HA, result in words
T1 construct: His-ZZ (cleaved yes); made in house; host or cells: Escherichia coli BL21-CodonPlus (DE3)
T1 sequence (Q6P5F9 1-1062 V430A/L431A/V432A limits assumed): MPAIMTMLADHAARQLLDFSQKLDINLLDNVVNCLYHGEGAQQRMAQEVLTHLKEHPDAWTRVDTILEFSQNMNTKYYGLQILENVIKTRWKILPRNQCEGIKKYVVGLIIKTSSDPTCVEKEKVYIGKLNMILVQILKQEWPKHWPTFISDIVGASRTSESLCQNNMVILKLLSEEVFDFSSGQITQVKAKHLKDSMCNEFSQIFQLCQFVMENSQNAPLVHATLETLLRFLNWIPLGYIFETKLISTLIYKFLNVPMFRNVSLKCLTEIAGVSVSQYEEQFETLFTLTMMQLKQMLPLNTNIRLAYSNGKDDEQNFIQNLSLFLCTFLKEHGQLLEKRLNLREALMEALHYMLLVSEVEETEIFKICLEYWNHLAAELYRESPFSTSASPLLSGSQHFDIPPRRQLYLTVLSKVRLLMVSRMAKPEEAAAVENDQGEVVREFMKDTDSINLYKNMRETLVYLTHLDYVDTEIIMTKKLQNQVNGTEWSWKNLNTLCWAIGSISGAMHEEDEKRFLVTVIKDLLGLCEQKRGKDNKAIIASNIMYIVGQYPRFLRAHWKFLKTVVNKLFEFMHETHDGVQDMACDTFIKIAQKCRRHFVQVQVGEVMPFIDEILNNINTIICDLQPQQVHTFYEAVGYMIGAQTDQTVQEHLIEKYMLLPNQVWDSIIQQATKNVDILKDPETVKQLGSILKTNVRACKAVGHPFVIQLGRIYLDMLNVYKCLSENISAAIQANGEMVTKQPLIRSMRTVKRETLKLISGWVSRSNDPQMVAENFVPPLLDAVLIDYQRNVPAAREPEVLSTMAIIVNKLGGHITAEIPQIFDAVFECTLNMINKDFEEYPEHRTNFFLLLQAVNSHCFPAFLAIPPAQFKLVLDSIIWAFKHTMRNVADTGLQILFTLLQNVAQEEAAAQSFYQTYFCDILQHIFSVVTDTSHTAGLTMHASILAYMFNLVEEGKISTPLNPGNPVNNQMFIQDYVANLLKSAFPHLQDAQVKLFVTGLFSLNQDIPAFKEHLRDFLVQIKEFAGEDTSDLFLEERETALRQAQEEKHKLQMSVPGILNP
Description: Isothermal titration calorimetry (ITC)
ITC measurements were carried out using a VIP-ITC MicroCalorimeter (MicroCal, Inc., Northampton, MA). TFP and YFP constructs, as well as CRM1^HA, were dialyzed in a buffer containing 20 mM HEPES, pH 7.4, 50 mM NaCl, 1 mM TCEP, 1 mM MgCl2, and degassed prior to the experiment. Untagged peptides (AS: QDLCLAVEEVSLRK, AL: EAIQDLCLAVEEVSLRK, ES: QDLWQSLAQVSLRK and EL: EAIQDLWQSLAQVSLRK), N-acetylated and 95% pure, were purchased from Proteogenix (Schiltigheim, France) and resuspended in the ITC buffer. Measurements were performed at 20°C. TFP-NES, YFP-NES or NES peptides at 35–180 μM were titrated onto CRM1^HA at 2–14 μM. Injections of 6 μL were performed at 320 seconds interval (the first injection always was of 1 μL and is not considered in data analysis). To determine the thermodynamic parameters of NPM / importin interaction, importin α, importin Δα or importin α/β at 45–60 μM were titrated onto NPM (1–1.2 μM pentamer) in 50 mM Tris/HCl, pH 7.5, 100 mM NaCl, 2 mM TCEP, and 10% glycerol. […] “Reverse” titrations, where 20–30 μM NPM was titrated onto 7–10 μM of the different importins were also performed and yielded similar results.
The reaction heat of each injection is related to the calorimetric enthalpy of binding, ΔH^0. The binding isotherms, ΔH^0 vs. molar ratio, were analyzed with an independent binding sites model using MicroCal Origin software. The fit of the binding curve yields the binding constant KA (KD = 1/KA) and the enthalpy ΔH^0 of the binding reaction. The Gibbs free energy of binding ΔG^0 and the entropy ΔS^0 are determined from the basic thermodynamic expressions: ΔG^0 = -RTlnKA = ΔH^0−TΔS^0, where R and T are the gas constant and the absolute temperature, respectively.
Fig 5 Analysis of CRM1^HA/TFP-NES interaction by ITC. Isothermal titration of CRM1^HA with TFP-mutE(NES). […] The titration of negative control TFP-Cter (180 μM) onto CRM1^HA (14 μM) (circles) is also shown for comparison.

CRM1^HA [3] = target: T1, CRM1^HA; assay: Fluorescence anisotropy binding assay, CRM1^HA; conditions: 0–60 μM CRM1^HA, 25°C
Description: Fluorescence anisotropy binding assays
To estimate CRM1 binding affinities for NES motifs we monitored binding with a fluorescence-polarization assay based on previously described approaches. The increase in fluorescence anisotropy of TFP/YFP when the TFP/YFP-NES construct (50 nM) binds to 0–60 μM CRM1 (either CRM^HA or wild type) was recorded at 25°C with a 8100 SLM-Aminco spectrofluorometer in buffer 20 mM Tris/HCl, pH 7.4, 50 mM NaCl, 5 mM DTT, 2 mM MgCl2. Excitation and emission wavelengths were 463, 500 nm for TFP and 463, 533 nm for YFP, and slits width 4 and 8 nm, respectively.
Fig 4 Binding of CRM1 to TFP-NES constructs. (A) Scheme of the engineered TFP constructs, showing the sequence of the NES motifs. Φ residues are highlighted in red. (B) Titration of CRM1 onto the different TFP constructs (50 nM), at 25°C, in buffer 20 mM Tris/HCl, pH 7.4, 50 mM NaCl, 5 mM DTT, 2 mM MgCl2: Left panel: Binding of CRM1^HA (solid symbols) or wild type CRM1 (empty symbols) to TFP-PKI(NES). Right panel: Binding of CRM1^HA to TFP-mutE(NES) (triangles) and TFP-mutA(NES) (squares). Fraction bound was calculated from the relative increase in fluorescence anisotropy of TFP (λexc 463 nm, λem 500 nm). Error bars correspond to at least three measurements per CRM1 concentration.
We next used the TFP-(NES) constructs to monitor CRM1^HA binding to each motif, using the change in fluorescence anisotropy upon complex formation as a readout (Fig 4B), as previously described. […] The different nature of the fluorescent tag, and/or the linker between the fluorescent protein and the NES (2 residues longer in the YFP-PKI construct) could explain the discrepancy. […] To isolate the CRM1 / NES interaction under study from the influence of the tag protein, we have also conducted binding assays with peptides corresponding to the NES motifs (see below).

[4] = ITC, NES ligand (35–180 μM) titrated onto CRM1^HA (2–14 μM), 20°C, 20 mM HEPES pH 7.4, 50 mM NaCl, 1 mM TCEP, 1 mM MgCl2, independent binding sites model, read-out: KD
[5] = TFP/YFP-NES construct 50 nM, 20 mM Tris/HCl pH 7.4, 50 mM NaCl, 5 mM DTT, 2 mM MgCl2, at least three measurements per CRM1 concentration, read-out: apparent KD (C50)

Q: With “94–102: candidate NES motif in the core domain of NPM (ITPPVVLRL; UniProt P06748 94-102, looked up, fragment)” as the compound, how does the “NES export activity in cells” value (nuclear export) read?
A: border-line activity

Q: With Cc1c2oc3c(C)ccc(C(=O)N[C@@H]4C(=O)N[C@H](C(C)C)C(=O)N5CCC[C@H]5C(=O)N(C)CC(=O)N(C)[C@@H](C(C)C)C(=O)O[C@@H]4C)c3nc-2c(C(=O)N[C@@H]2C(=O)N[C@H](C(C)C)C(=O)N3CCC[C@H]3C(=O)N(C)CC(=O)N(C)[C@@H](C(C)C)C(=O)O[C@@H]2C)c(N)c1=O [ActD, actinomycin D] (I: T[dV]P[Sar][NMeV] / II: T[dV]P[Sar][NMeV]; ester I:1-I:C, II:1-II:C; linker I:N-II:N via Actinocin(9to1)) as the compound, how does the “cytoplasmic localization of endogenous NPM” value ([1]; HEK293T expressing YFP-CRM1, ActD 5 μg/mL 3 h where ActD) read?
A: a further increase was observed

Q: What about the “nuclear/cytoplasmic localization of endogenous NPM” value ([1]; YFP-transfected HEK293T, ActD 5 μg/mL 3 h, no CRM1 overexpression) of the same compound?
A: does not affect, however, the amount of cells displaying nuclear/cytoplasmic localization of NPM

Q: What about the “cells with nuclear/cytoplasmic localization of Myc-NPM” value (Myc-NPM in HEK293T cells; YFP-CRM1 co-expression and ActD (5 μg/mL, 3 h), >200 cells counted) of the same compound?
A: 33%

Q: For NC(=O)NO [HU, hydroxyurea], which “effect of HU on endogenous NPM localization” value ([1]; hydroxyurea 4 mM 24 h (data not shown)) is on record?
A: could not be observed on endogenous NPM

Q: What about the “cells with cytoplasmic relocation of Myc-NPM, YFP-CRM1 co-expression with HU” value (Myc-NPM in HEK293T cells; YFP-CRM1 co-expression, hydroxyurea 4 mM 24 h (increase from 20%)) of the same compound?
A: 50%

Q: For Ac-EAIQDLCLAVEEVSLRK [peptide AL], which Kd (CRM1^HA [2]) is on record?
A: 57 ± 10 nM

Q: Which Kd (CRM1^HA [2]; [4]) does the source give for Ac-EAIQDLWQSLAQVSLRK [peptide EL] here?
A: 31 ± 1 nM

Q: For Ac-QDLWQSLAQVSLRK [peptide ES], which Kd (CRM1^HA [2]; [4]) is on record?
A: 76 ± 1 nM

Q: Which results are given for “DLWQSLAQVSLRK [TFP-mutE(NES), NES of NPM mutant E as C-terminal fusion to teal fluorescent protein]”?
A: Kd (CRM1^HA [3]; TFP-NES 50 nM, pH 7.4, rounded, read-out: apparent KD): 2200 nM; Kd (CRM1^HA [3]; [5]): 2160 ± 556 nM; Kd (CRM1^HA [2]; [4]): 1040 ± 41 nM; ΔH (CRM1^HA [2]; ITC, NES ligand titrated onto CRM1^HA, 20°C, 20 mM HEPES pH 7.4): -15.4 ± 3.1 kcal/mol; -TΔS (CRM1^HA [2]; ITC, NES ligand titrated onto CRM1^HA, 20°C, 20 mM HEPES pH 7.4, from ΔG = ΔH − TΔS): 7.4 ± 3.1 kcal/mol; n (binding stoichiometry) (CRM1^HA [2]; ITC, NES ligand titrated onto CRM1^HA, 20°C, 20 mM HEPES pH 7.4, low n of peptides might result from limited solubility): 0.80 ± 0.19; ΔG (CRM1^HA [2]; ITC, NES ligand titrated onto CRM1^HA, 20°C, 20 mM HEPES pH 7.4, ΔG = -RTlnKA): -8.0 ± 0.0 kcal/mol; Kd (CRM1^HA [2]; ITC, TFP-NES titrated onto CRM1^HA, 20°C, 20 mM HEPES pH 7.4, rounded, read-out: KD): 1000 nM

Q: What does the source list for “DLWQSLAQVSLRK [mutE(NES), acquired NES motif of AML-associated NPM mutant E]”?
A: relative affinity for CRM1^HA, mutant E NES vs mutant A NES (CRM1^HA [2]; anisotropy, ITC with TFP constructs and ITC with untagged peptides): approximately double that of mutant A; NES export activity in cells (nuclear export): much higher than that of mutant A NES, and comparable to the export activity of PKI(NES)

Q: With “DLWQWRKSL [TFP-Cter, negative control construct containing the last 9 C-terminal residues of wild type NPM]” as the compound, how does the binding response (CRM1^HA [2]; ITC, 20°C, 20 mM HEPES pH 7.4) read?
A: small exothermic peaks (Fig 5), which may reflect a non-specific binding

Q: With “LALKLAGLDI [PKI(NES), in b48 the value is that of TFP-PKI(NES), reference compound]” as the compound, how does the Kd (CRM1^HA [3]; [5]) read?
A: 579 nM

Q: Which binding response (CRM1^HA [2]; ITC, 20°C, 20 mM HEPES pH 7.4) does the source give for “QDLCLAVEEVSLRK [peptide AS, short version of the NES motif of mutant A]” here?
A: showed no binding in our conditions

Q: With “residues 42–49: candidate NES motif in the core domain of NPM (LSLRTVSL; UniProt P06748 42-49, looked up, fragment)” as the compound, how does the “NES export activity in cells” value (nuclear export) read?
A: border-line activity
